Residues, ends and D or L forms follow the SMILES beside them. *: point of attachment. Boc = CC(C)(C)OC(=O)*; Bn = c1ccc(C*)cc1
Row | SMILES | melting point
1 | O=S(=O)(O)c1ncnn1CC(O)(Cc1ccccc1Cl)C1(Cl)CC1 (configuration not stated) | 68 to 70 °C
2 | CSc1nccc(-c2nc(=O)c3ccccc3s2)n1 | 224 °C
3 | CC1(C(=O)c2c[nH]c3ncc(Br)nc23)CCCCCC1 | 198 °C
4 | O=Cc1cn(Cc2ccc(OCc3ccccc3)cc2)nc1OCc1ccc(OCc2ccccc2)cc1 | 138 to 139 °C
5 | CN1C(=O)CCC2(C)c3ccc(Sc4nccc5ccccc45)cc3CCC12 (configuration not stated) | 196 to 199 °C
6 | CCOC(=O)c1cc2ccccc2nn1 | 158 to 160 °C
7 | COC(=O)C(Cc1ccc(OCc2ccccc2)cc1)NC(=O)C(COCc1ccccc1)NC(=O)C(Cc1c[nH]c2ccccc12)NC(=O)OC(C)(C)C (stereo not drawn) (Boc-Trp-Ser(Bn)-Tyr(Bn)-OMe; configuration not given here) | 130 to 131 °C
8 | CCOc1cc2c(cc1OC)C(c1ccc(NS(=O)(=O)c3ccc(C)cc3)cc1)=N[C@H]1CCN(C)C[C@@H]21 | 207 to 219 °C
9 | Cc1c(-c2ncc(Cl)cc2F)nn(C)c1C(N)=O | 201 to 204 °C
10 | CC(=O)N1CCC2(CC1)Cc1cc([N+](=O)[O-])ccc1O2 | 149 to 150 °C
11 | CC(C)(C)[Si](C)(C)Oc1ccc(-c2ccc(C3CCC(c4c(F)cccc4F)=N3)cc2)cc1 (configuration not stated) | 33 °C
12 | COC(=O)CCCc1cc2cc(Cl)ccc2n1S(=O)(=O)c1ccc2c(c1)CCC(C)(C)O2 | 126 to 129 °C
13 | Cc1c(C)c2c(c(C)c1N)CC(C)(CN(C)C)O2 (configuration not stated) | 66 to 67 °C
14 | Cc1nc(N2CCN(CC3CC3)C2=O)sc1C(=O)NCc1ncco1 | 172 to 174 °C
15 | CCOC(=O)c1cc2cc(OCCCS(C)(=O)=O)cc(N(C)S(=O)(=O)c3ccccn3)c2[nH]1 | 176 to 177 °C
16 | CC(C)(C#N)c1ccc(-n2c(-c3cc(-c4cnc5ccccc5c4)ccn3)c[nH]c2=O)cc1 | 271 °C
17 | Nc1ncc(-c2ccccc2)nc1Br | 148 to 152 °C
18 | CC=CCC(O)(C(=O)c1ccccc1)C(=O)c1ccc(C(C)C)cc1 (configuration not stated) | 108 to 110 °C
19 | CCOc1c(Cl)ccc(-c2cc(N)c(Cl)c(C(=O)OC)n2)c1F | 154 to 156 °C
20 | CC(C)[C@H](NC(=O)N(C)Cc1ccccn1)C(=O)N[C@@H](Cc1ccccc1)[C@@H](O)[C@@H](O)[C@H](Cc1ccccc1)NC(=O)OCc1cccnc1 | 84 to 85 °C
21 | O=C(NCCO)c1cccc(-c2cccc3nn(Cc4cccc(Cl)c4)cc23)c1 | 202 to 203 °C
22 | CCn1c(-c2cc(OC)c(OC)cc2S(N)(=O)=O)cc(=Nc2c(C)cc(C)c(S(N)(=O)=O)c2C)n(C)c1=O | 173 to 178 °C
23 | COc1cc(-c2ncn(C)c2-c2ccc(C(F)(F)F)cc2)cc(OC)c1OC | 168 °C
24 | CCCCOc1c(CNC(=O)OC(C)(C)C)n(CC(C)C)c(=O)c2ccc(C(N)=S)cc12 | 189 to 190 °C
25 | C=CCc1cc(C(=O)OCC)ccc1NC(C)=O | 127 to 128 °C

Row | SMILES | melting point
26 | C=Cc1ccc2c(c1)CC(NC(=O)OC(C)(C)C)CC2 (configuration not stated) | 89 to 91 °C
27 | O=C(c1ccncc1)N1CCC(=C2c3ccccc3CCn3ccnc32)CC1 | 207 to 209 °C
28 | CC(C)CCOc1ccc(OCn2cnc(Cl)c2Cl)cc1 | 105 to 108 °C
29 | COc1cccc(Oc2cccc(NC(=O)c3ccn4c3CSC4c3cccnc3)c2)c1 (configuration not stated) | 130 °C
30 | CCCCCCC(N)(c1ccccc1)C(C)(C)O (configuration not stated) | 64.5 to 65.5 °C
31 | CCCCCc1n[nH]c(CCCCC)n1 | 66 to 68 °C
32 | Cc1ccc2c(c1)c(C)c(C(=O)OCc1ccccc1)n2CCC#N | 71 °C
33 | CC(=O)Nc1ccc(S(=O)(=O)Nc2ccc(C(O)(C(F)(F)F)C(F)(F)F)cc2)cc1 | 198 to 200 °C
34 | CC1CC(=O)c2c(C(=O)O)c[nH]c2C1 (configuration not stated) | 210 to 211 °C
35 | N#Cc1ncn2c(C(F)(F)F)cc(-c3ccccn3)nc12 | 205 °C
36 | OC[C@@H]1CCCN1c1nc2ccccc2s1 | 110 °C
37 | CC(=O)Nc1cccc(CNC(=O)c2[nH]c3ccc(Cl)cc3c2S(=O)(=O)c2ccccc2)c1 | 249 to 250 °C
38 | CCCCCCCCCCCCCCOc1ccc(O)c(C(=O)OC)c1 | 49 to 53 °C
39 | COc1cccc(C=Cc2nc3c(s2)N(C(C)=O)CCC3)c1OC | 185 to 187 °C
40 | COc1cccc2c3c(c(=O)[nH]c12)CCN3c1cccc(C)c1 | 155 to 157 °C
41 | COc1ccc(-c2cc(C)c(C(=O)O)c(C)c2)cc1OC | 175 to 176 °C
42 | O=C1Nc2ccc(I)cc2C1=NNC(=O)C1CCN(Cc2cccnc2)CC1 | 125 °C
43 | Cc1oc(-c2ccc(C(F)(F)F)cc2)nc1CC#N | 85 to 86 °C
44 | CCN1CCCC1CNC(=O)c1cccc(N(C2CN(C(c3ccc(Cl)cc3)c3ccc(Cl)cc3)C2)S(C)(=O)=O)c1 (single isomer, unassigned; (+)) | 122 °C
45 | FC(F)(F)/C(=C(\c1ccccc1)c1ccc(OCCN2CCCC2)cc1)c1ccccc1 | 84.5 to 86 °C
46 | CC(C)[C@@H]1COC(=O)N1C(=O)[C@@H](CC(=O)OC(C)(C)C)Cc1ccccc1 | 167 to 168 °C
47 | COc1ccc(C2CC(=O)OC(=O)C2)cc1OC | 118 to 120 °C
48 | CC(C)(C)c1cc(C(=O)NCCCSc2ccncc2)cc(C(C)(C)C)c1O | 203 to 204 °C
49 | O=c1c(Cc2ccccn2)cc2cccnc2n1-c1cccc([N+](=O)[O-])c1 | 229 to 231 °C
50 | O=C1N(C(c2ccccc2)c2ccccc2)c2ccccc2C1(O)c1cc2c(cc1O)OCCCO2 (configuration not stated) | 115 to 118 °C

Row | SMILES | melting point
51 | CCCCCCCCCCCCCCCCCCOc1ccc2ccccc2c1O | 58 to 59 °C
52 | NC(=O)c1ccc2c(c1-c1c(C(N)=O)ccc3c1OCO3)OCO2 | 249 to 250 °C
53 | COCOc1cc(OC)ccc1C=O | 55 to 56 °C
54 | CN1CCc2c([nH]c3ccc(NS(=O)(=O)c4ccc(N)cc4)cc23)C1 | 236 to 237 °C
55 | Cc1ccc2ccc(C(N)=O)cc2c1 | 210 to 212 °C
56 | CCCCOc1nc2ccnn2c2ncccc12 | 99.8 °C
57 | CC(=O)NCc1ccc(C(C)(C)NC(=O)OCc2ccccc2)cc1 | 132 to 135 °C
58 | CN1CC(O)c2cc(S(N)(=O)=O)sc2S1(=O)=O (single isomer, unassigned; (+)) | 168 °C
59 | CCS(=O)(=O)Nc1c(C)c(C)c2c(c1C)C(c1ccc(C(C)C)cc1)CO2 (configuration not stated) | 132 to 133 °C
60 | CC(=O)NC[C@H]1CN(c2ccc(N3CCC(=C(C)C#N)CC3)c(F)c2)C(=O)O1 | 181 to 182 °C
61 | NC(=O)N1CC(Oc2cccc(F)c2)C1 | 169 to 170 °C
62 | O=S1(=O)N=Cc2ccccc2O1 | 44 to 47 °C
63 | COC(=O)c1ccc(S(C)(=O)=O)c(C2=NOC(C)(OC)C2)c1Cl (configuration not stated) | 100 to 105 °C
64 | CC(C)(C)C(=O)OCn1nc2ccc(OCCCN3CCC(OC(c4ccccc4)c4ccccc4)CC3)nn2c1=O | 108 to 110 °C
65 | COc1ccc(N2CCN(c3c(C)c(C)c4c(c3C)CC(C)(CNC(C)=O)O4)CC2)cc1 (configuration not stated) | 146 to 152 °C
66 | C=CCOc1cccc(C(=O)O)c1C(=O)O | 166 to 167 °C
67 | CCOC(=O)c1ccc(-c2cc(-c3ccc4c(c3)C(C)(C)CCC4(C)C)ccc2OS(=O)(=O)C(F)(F)F)cc1 | 110 to 113 °C
68 | O=C(NCCO)c1cccc(-c2cccc3nn(Cc4ccc(F)c(Cl)c4)cc23)c1 | 177 to 178 °C
69 | COC(=O)c1cc(C)c(C(=O)O)c(C)c1 | 191 to 192 °C
70 | Cc1ccc(S(=O)(=O)NCCC(C(=O)OC(C)(C)C)C2(CC(C)C)CCN(CCc3ccccc3)C2=O)cc1 (configuration not stated) | 136 to 138 °C
71 | COc1cccc2c1CCN(C)C2CN1CCC(c2ccccc2)C1 (configuration not stated) | 152 to 153 °C
72 | CCc1cc(NCc2ccc(-c3ccccc3-c3nnn[nH]3)cc2)n2nccc2n1 | 177 to 179 °C
73 | O=S(=O)(NCCO)c1c[nH]c(-c2ccc(Cl)cc2)n1 | 210 to 212 °C
74 | O=[N+]([O-])c1cnc2ccc(Oc3ccc(CNc4ncncc4Cl)cc3)nn12 | 185 °C
75 | COc1ccc(N2CC(=O)N(c3ccc(OC)nc3-c3ccc(N(C)C)cc3)CC2=O)cc1 | 138 to 139 °C

Row | SMILES | melting point
76 | CCOC(=O)[C@H](Cc1cc(OC)c(OC)cc1I)NC=O | 151 to 152 °C
77 | CCOC(=O)c1ccc(NC(=O)c2cc(Cl)ccc2OC)cc1OCC | 108 to 111 °C
78 | CCOC(=O)c1cn(-c2nc(NC(C)(C)CC(C)(C)C)ccc2F)c2c(Cl)c(F)c(F)cc2c1=O | 178 to 180 °C
79 | CN1C(=N)C(=O)c2ccccc21 | 99 to 102 °C
80 | Cc1ccc2[nH]c(-c3ccccc3)cc(=O)c2c1 | 290 to 292 °C
81 | Cc1nc(CO)cn1Cc1ccccc1 | 140 to 146 °C
82 | COc1cc(C(=O)O)c(N)cc1C | 193 to 196 °C
83 | Cc1c(C(=O)NNC(C)(C)C)ccc2c1CCCO2 | 146 to 148 °C
84 | CCOC(=O)c1c(CN2CCOCC2)nc2cc(OC)c(OC)cc2c1-c1ccccc1OC | 153 to 154 °C
85 | Cc1c(-c2ccccc2)[nH]c(=O)n1C1CCN(CCc2ccccc2)CC1 | 153 to 155 °C
86 | COC(=O)C1(CCCN2CCN(c3ccccc3)CC2)Sc2ccccc2CCC1O (configuration not stated) | 152 to 154 °C
87 | C[Si](C)(C)c1c(CCC=O)cnc2c1CCO2 | 59 to 60 °C
88 | O=C(c1ccccc1)N1CCc2cc(S(=O)(=O)N3CC(c4ccccc4)NC3=O)ccc21 (configuration not stated) | 127 °C
89 | Cn1ccnc1COc1nn2c(-c3ccccc3F)nnc2cc1C1CCC1 | 173 °C
90 | CCC1CN(c2cccc(C(C)C)c2)C(=O)C1c1cccc(Cl)c1 (configuration not stated) | 88.5 to 90 °C
91 | NC(=O)CCCN(CCCC1CCCCC1)C(=O)Nc1ccccc1 | 104 to 106 °C
92 | Oc1ccc(-c2nnc(CSCCOc3ccccc3)s2)cc1 | 127 to 128 °C
93 | O=C(O)c1ccc(C=C(C(=O)C2CC2)C(=O)C2CC2)cc1 | 175 to 178 °C
94 | CCCC(Oc1cccc(-c2noc(C)n2)c1)C(=O)O (configuration not stated) | 98 to 100 °C
95 | O=S(=O)(c1ccccc1)N1CCC(C(O)(c2ccc(F)cc2)c2ccc(F)cc2)CC1 | 142 to 144 °C
96 | CC(=O)NCC1(C)CC(O)c2ccccc2O1 (configuration not stated) | 168 to 170 °C
97 | COc1ccc(NC(=O)c2ccccc2)cc1NC(=S)Nc1cc(Cl)cc(Cl)c1 | 194 to 195 °C
